pIC50: −log10 of the molar value. Read-outs that look alike come from different tables or passages of the source.
Experiments:
[1] = PTIO free radical scavenging assay; format: biochemical; settings: 8 μg/mL; SD in brackets
Protocol: PTIO free radical scavenging was also performed following previous reports with some modification. VC was used as the positive control. PTIO radicals were dissolved with phosphate buffer (PBS) (pH 7.4, 50 mM) with a concentration of 0.05 mg/mL. Then, the samples (40 µL, 40 µg/mL) and PTIO solution (160 µL) were added into 96-well plates (as the value of Ai). After being thoroughly mixed, the reaction solution was incubated at 37 °C in a water-bath for 2 h. Then, the absorbance was measured at 557 nm. PTIO free radical scavenging was calculated using the above equation. (40 µL PBS with 160 µL PTIO as A0, 40 µL compounds with 160 µL PBS as Aj).

[2] = DPPH free radical scavenging assay; format: biochemical; settings: 20 μg/mL; SD in brackets
Protocol: The in vitro antioxidant activity tests were conducted according to previous reports. Among them, the DPPH free radical scavenging assay was slightly modified. Briefly, the DPPH material was precisely weighed, ethanol solution was added to obtain a concentration of 0.1 mmol/L (to use immediately, or store in the dark). Then, the compounds (100 µL, 40 µg/mL) with DPPH solution (100 µL) (Ai) were added to 96-well plates and incubated for 30 min at room temperature. Subsequently, the activity was measured using the Thermo Scientific Varioskan LUX ([…], VL0L00D0, USA), with an absorbance of 570 nm. Vitamin C (VC) (40 µg/mL) was used as the positive control.

HepG2 cells [3] = assay: Cytotoxic activity (MTS assay), HepG2; format: cell-based, human; settings: for inhibition at 10 µM: HepG2, 24 h, read-out: HepG2 inhibition rate; for pIC50: 24 h, MTS
Protocol: (§1) The tests were conducted according to our previous reports. The cells were grown in DMEM medium supplemented with 10% FBS, penicillin (100 U/mL), and streptomycin (100 μg/mL) in a 37 °C and 5% CO2 incubator. The cytotoxic activities were performed by the MTS assay. Briefly, 28 compounds were dissolved with DMSO. The cells were seeded at 1 × 10^5 cells/mL in 96-well plates (100 µL/well) and cultured for 18 h when the cells filled the bottom of the wells. Then the supernatant was discard, the compounds (10 μM, 100 µL/well) were added to the culture and incubated for 24 h before cell viability measurement. 10 µL MTS reagent (0.5 mg/mL) were added and further incubated for 4 h. Finally, absorbance was read using an automatic micro-plate reader (Molecular Devices, USA) at 490 nm to test the cell viabilities, and the results were presented as the percent of non-treated control for each concentration. Irinotecan was used as the positive control. All measurements were repeated in triplicate. Data were expressed as the mean ± SD.

A549 cells [4] = assay: Cytotoxic activity (MTS assay), A549; format: cell-based, human; settings: for pIC50: MTS
Protocol: as §1

MCF7 cells [5] = assay: Cytotoxic activity (MTS assay), MCF7; format: cell-based, human; settings: for inhibition at 10 µM / pIC50: Homo sapiens, MCF7, 24 h; for inhibition at 10 µM: read-out: MCF7 inhibition rate; for pIC50: MTS
Protocol: as §1

LO2 cells = assay: Cytotoxic activity (MTS assay), LO2 normal cells; format: cell-based, human; settings: for inhibition at 10 µM: Homo sapiens, L02, read-out: LO2 cell inhibitory activity (Table S7)
[6] = system: HepG2, A549 and MCF7 cells; assay: Cytotoxic activity (MTS assay), stated jointly for three cancer cell lines; format: cell-based; settings: Homo sapiens, read-out: IC50 values against the three cancer cell lines (range)
Protocol: as §1

HepG2 cells [7] = assay: Cytotoxic activity (MTS assay), HepG2; format: cell-based, human; settings: SD in brackets; for inhibition at 10 µM: Homo sapiens, HepG2, 10 µM, read-out: HepG2 cell inhibitory activity (Table S4)
A549 cells [8] = assay: Cytotoxic activity (MTS assay), A549; format: cell-based, human; settings: SD in brackets; for inhibition at 10 µM: Homo sapiens, A549, read-out: A549 cell inhibitory activity (Table S5)
MCF7 cells [9] = assay: Cytotoxic activity (MTS assay), MCF7; format: cell-based, human; settings: SD in brackets; for inhibition at 10 µM: Homo sapiens, MCF7, read-out: MCF-7 cell inhibitory activity (Table S6)
[10] = ABTS free radical scavenging assay; format: biochemical; settings: for ABTS radical scavenging activity (inhibition rate): 20 μg/mL, SD in brackets
Protocol: The third assay, the ABTS free radical scavenging screen was performed by previous experiments with slight changes. First, we needed to prepare for the ABTS^+ solution. […] Then, they were mixed with equal volume at room temperature and kept away from light for 12 h, the mixed solution was diluted with ethanol until the absorbance of […]. Thus, the ABTS^+ solution was obtained. Furthermore, the compounds (100 µL, 40 µg/mL) with ABTS^+ solution (100 µL) were also added to the 96-well plates (as the value of Ai) and were interacted for 10 min at room temperature in the dark, then the absorbance at 734 nm was measured. VC was used as the positive control. Antioxidant capacity was calculated according to the first formula (the value of 100 µL ethanol with 100 µL ABTS^+ solution as A0, the value of 100 µL compounds with 100 µL ethanol as Aj). All experiments were carried out in triplicate.

ABTS radical scavenging IC50 [10] | Compound | PTIO radical scavenging activity (inhibition rate) [1] | DPPH radical scavenging activity (inhibition rate) [2] | inhibition at 10 µM (HepG2 cells [3]; Homo sapiens) | inhibition at 10 µM (MCF7 cells [5]) | inhibition at 10 µM (LO2 cells; SD in brackets) | inhibition at 10 µM (HepG2 cells [7]) | inhibition at 10 µM (A549 cells [8]) | inhibition at 10 µM (MCF7 cells [9]) | ABTS radical scavenging activity (inhibition rate) [10] | other results
– | C=C(C)C(CC=C(C)C)Cc1cc(OC)ccc1C1Oc2cc(O)cc(CC(CC=C(C)C)C(=C)C)c2C(=O)C1O (stereo not shown) [Compound 1, 7-hydroxy-5,1-bis (5-methyl-2-isopropyl-hexene) -flavanonol] | 37.3% (3.4%) | 40.0% (4.9%) | 84% | 85% | 29.4% | 84.1% | 58% | 85% | – | pIC50 (HepG2 cells [3]; Homo sapiens, HepG2): 5.02; inhibition at 10 µM (A549 cells [4]; Homo sapiens, A549, 10 μM, 24 h, read-out: A549 inhibition rate): 58%; pIC50 (A549 cells [4]; Homo sapiens, A549, 24 h): 4.98; pIC50 (MCF7 cells [5]): 5.12; Cytotoxic effect on LO2 human normal cells (in words) (LO2 cells; compared with cancer cells): little effect; pIC50 [6]: 4.98 to 5.12
1.81 µg/mL | C=C(C)C(CC=C(C)C)Cc1c(O)c(OC)c2c(c1O)C(=O)C(O)C(c1ccc3c(c1)OCO3)O2 (stereo not shown) [Compound 2, 5,7-dihydroxy-8-methoxy-6-(5-methyl-2-iso-hexenyl)-3′,4′-methylene dioxy-flavanonol] | 41.0% (2.6%) | 42.3% (1.5%) | 19.9% | 10.3% | 27.9% | 19.9% | 17.2% | 10.3% | – | –
2.05 µg/mL | C=C(C)[C@H](CCC(C)(C)O)Cc1c(O)cc(OC)c2c1O[C@H](c1ccc(O)cc1O)[C@@H](O)C2=O [Compound 3, kushenol H] | – | 53.5% (0.4%) | 1.9% | 4.5% | 15.5% | 1.9% | 11.3% | -4.5% | – | –
3.72 µg/mL | C=C(C)C(CCC(C)(C)O)Cc1c(O)cc(OC)c2c1OC(c1ccc(O)cc1O)C(O)C2=O (stereo not shown) [Compound 4, kushenol L] | 39.4% (1.3%) | 37.1% (3.0%) | 4.6% | 0.7% | 3.2% | 4.6% | 8.2% | -0.7% | – | –
– | COc1ccc(C(=O)O)c(O)c1 [Compound 26, 4-methoxysalicylic acid] | 37.7% (1.6%) | 25.4% (4.9%) | – | – | -6.2% | 1.5% | 9.4% | 0.7% | 72.9% (3.0%) | –
– | O=C(O)c1ccc(O)cc1 [Compound 28, 4-hydroxybenzoic acid] | 37.3% (2.3%) | 20.4% (8.6%) | – | – | 2.8% | 10.2% | 15.5% | 1.1% | 2.2% (0.9%) | –
– | CCc1c2c(nc3ccc(OC(=O)N4CCC(N5CCCCC5)CC4)cc13)-c1cc3c(c(=O)n1C2)COC(=O)[C@]3(O)CC [irinotecan, reference compound] | – | – | – | – | – | – | – | – | – | pIC50 (HepG2 cells [3]; Homo sapiens, HepG2): 6.22; pIC50 (A549 cells [4]; Homo sapiens, A549, 24 h): 6.00; pIC50 (MCF7 cells [5]): 6.05
– | kushenol A [Compound 13] | 35.6% (1.0%) | 25.6% (2.4%) | – | – | – | – | – | – | 81.5% (1.9%) | pIC50 (HepG2 cells [3]): 5.16; Inhibition of A549 cells (in words) (A549 cells [4]): could hardly inhibit; Inhibition of MCF7 cells (in words) (MCF7 cells [5]): could hardly inhibit; LO2 cell inhibitory activity (Table S7) (LO2 cells; 10 μg/mL, SD in brackets): 26.8% (2.7%); HepG2 cell inhibitory activity (Table S4) (HepG2 cells [7]; 10 μg/mL): 97.5% (0.1%); A549 cell inhibitory activity (Table S5) (A549 cells [8]; 10 μg/mL): 17.6% (0.6%); MCF-7 cell inhibitory activity (Table S6) (MCF7 cells [9]; 10 μg/mL): 11.5% (2.1%)
